# Starred links: 1 amine or outer side, 2 acyl side, 3 side chain; linkers in the order of their positions; H or OH if unused. Non-standard residues stand in square brackets, D forms with d. Residues, ends and D or L forms follow the SMILES beside them. Groups on a side chain read outwards from the residue. *: point of attachment. C18 diacid = O=C(O)CCCCCCCCCCCCCCCCC(=O)*; γGlu = O=C(O)[C@H](CCC(=O)[*:2])N[*:1]; Ac4c = NC1(C(=O)O)CCC1; AEEA = NCCOCCOCC(=O)O; Aib = CC(C)(N)C(=O)O
# Legend:
# human GLP-1 receptor = biological target: T1, human GLP-1 receptor (Homo sapiens, UniProt P43220); experiment: Assay (I)(a) GLP-1 receptor activation, CRE luciferase reporter gene assay in BHK cells; type: cell-based; details: without presence of serum albumin; read-out: GLP-1R EC50 (pM) [Assay (I)(a)]
# T1 construct: expressed in transfected cells; host or cells: membranes of BHK cells (parent BHKTS13), clone FCW467-12A
# Summary of the method: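 Stable BHK clone expressing human GLP-1 receptor with CRE-driven firefly luciferase, 5×10EE3 cells/well in medium with 2% ovalbumin and 0.2% Pluronic F-68. Compounds at 1×10EE-13 to 1×10EE-6 M final, 3 h at 37° C.; luminescence read, EC50 (pM) from four-parameter fit.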
# [1] = Assay (III) ThT fibrillation assay for physical stability; type: physicochemical; details: 250 μM in 10 mM HEPES buffer, 37° C., shaking 960 rpm
# Summary of the method: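 Glucagon derivative at 250 μM in 10 mM HEPES pH 7.5 with 1 μM ThT was incubated at 37 °C under 960 rpm orbital shaking. Fluorescence (ex 444/em 485 nm) was read every 20 min and fitted for lag time (t0−2τ) and kapp (1/τ). Recovery was soluble peptide after centrifugation/filtration, by RP-HPLC, as percent of initial.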
# T1 sequence (P43220 24-463): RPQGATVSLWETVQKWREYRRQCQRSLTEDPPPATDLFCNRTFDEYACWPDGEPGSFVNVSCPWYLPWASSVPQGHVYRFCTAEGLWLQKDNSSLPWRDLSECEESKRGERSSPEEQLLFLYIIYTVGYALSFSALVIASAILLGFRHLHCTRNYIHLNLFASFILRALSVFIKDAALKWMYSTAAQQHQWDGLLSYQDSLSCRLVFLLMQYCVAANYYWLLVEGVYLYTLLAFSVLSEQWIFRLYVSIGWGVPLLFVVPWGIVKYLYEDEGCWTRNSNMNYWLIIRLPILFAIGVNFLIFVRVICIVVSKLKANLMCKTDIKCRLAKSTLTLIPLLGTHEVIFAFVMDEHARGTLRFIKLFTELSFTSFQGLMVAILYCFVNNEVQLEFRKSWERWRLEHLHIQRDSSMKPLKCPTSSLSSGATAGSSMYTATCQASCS
Structure (SMILES),EC50 (human GLP-1 receptor) [pM],"ThT Assay Lag time (h) [Assay (III), pH 7.5] [1] [h]"
"CC[C@H](C)[C@H](NC(=O)[C@H](CC(C)C)NC(=O)[C@H](Cc1c[nH]c2ccccc12)NC(=O)[C@H](CCC(N)=O)NC(=O)[C@@H](NC(=O)[C@H](Cc1ccccc1)NC(=O)[C@H](CC(=O)O)NC(=O)[C@H](CCCNC(=N)N)NC(=O)[C@H](C)NC(=O)[C@H](CCCNC(=N)N)NC(=O)[C@H](CCCNC(=N)N)NC(=O)[C@H](C)NC(=O)[C@H](CC(=O)O)NC(=O)[C@H](CC(C)C)NC(=O)[C@H](Cc1ccc(O)cc1)NC(=O)[C@H](CCCCN)NC(=O)[C@H](CO)NC(=O)[C@H](CC(C)C)NC(=O)[C@H](CC(=O)O)NC(=O)[C@H](CO)NC(=O)[C@@H](NC(=O)[C@H](Cc1ccccc1)NC(=O)[C@@H](NC(=O)CNC(=O)[C@H](CCC(N)=O)NC(=O)C(C)(C)NC(=O)[C@@H](N)Cc1c[nH]cn1)[C@@H](C)O)[C@@H](C)O)C(C)C)C(=O)N[C@@H](CO)C(=O)N[C@@H](CCCCNC(=O)CC[C@H](NC(=O)CC[C@H](NC(=O)COCCOCCNC(=O)COCCOCCNC(=O)CC[C@H](NC(=O)CCCCCCCCCCCCCCCCC(=O)O)C(=O)O)C(=O)O)C(=O)O)C(N)=O [Chem. 27, N^ε29-[(4S)-4-carboxy-4-[[(4S)-4-carboxy-4-[[2-[2-[2-[[2-[2-[2-[[(4S)-4-carboxy-4-(17-carboxyheptadecanoylamino)butanoyl]amino]ethoxy]ethoxy]acetyl]amino]ethoxy]ethoxy]acetyl]amino]butanoyl]amino]butanoyl]-[Aib2,Leu10,Ala16,Arg20,Ile27,Ser28,Lys29]-Glucagon amide] (H-H[Aib]QGTFTSDLSKYLDARRARDFVQWLISK([γGlu-γGlu-AEEA-AEEA-γGlu-C18 diacid])-NH2; N-terminus assumed)",3,45.0
"CC[C@H](C)[C@H](NC(=O)[C@H](CC(C)C)NC(=O)[C@H](Cc1c[nH]c2ccccc12)NC(=O)[C@H](CCC(N)=O)NC(=O)[C@@H](NC(=O)[C@H](Cc1ccccc1)NC(=O)[C@H](CCC(=O)O)NC(=O)[C@H](CCCNC(=N)N)NC(=O)[C@H](C)NC(=O)[C@H](CCCNC(=N)N)NC(=O)[C@H](CCCNC(=N)N)NC(=O)[C@H](C)NC(=O)[C@H](CC(=O)O)NC(=O)[C@H](CC(C)C)NC(=O)[C@H](Cc1ccc(O)cc1)NC(=O)[C@H](CCCCN)NC(=O)[C@H](CO)NC(=O)[C@H](CC(C)C)NC(=O)[C@H](CC(=O)O)NC(=O)[C@H](CO)NC(=O)[C@@H](NC(=O)[C@H](Cc1ccccc1)NC(=O)[C@@H](NC(=O)CNC(=O)[C@H](CCC(N)=O)NC(=O)C(C)(C)NC(=O)[C@@H](N)Cc1c[nH]cn1)[C@@H](C)O)[C@@H](C)O)C(C)C)C(=O)N[C@@H](CO)C(=O)N[C@@H](CCCCNC(=O)CC[C@H](NC(=O)CC[C@H](NC(=O)COCCOCCNC(=O)COCCOCCNC(=O)CC[C@H](NC(=O)CCCCCCCCCCCCCCCCC(=O)O)C(=O)O)C(=O)O)C(=O)O)C(N)=O [Chem. 28, N^ε29-[(4S)-4-carboxy-4-[[(4S)-4-carboxy-4-[[2-[2-[2-[[2-[2-[2-[[(4S)-4-carboxy-4-(17-carboxyheptadecanoylamino)butanoyl]amino]ethoxy]ethoxy]acetyl]amino]ethoxy]ethoxy]acetyl]amino]butanoyl]amino]butanoyl]-[Aib2,Leu10,Ala16,Arg20,Glu21,Ile27,Ser28,Lys29]-Glucagon amide] (H-H[Aib]QGTFTSDLSKYLDARRAREFVQWLISK([γGlu-γGlu-AEEA-AEEA-γGlu-C18 diacid])-NH2; N-terminus assumed)",3,45.0
"CC[C@H](C)[C@H](NC(=O)[C@H](CC(C)C)NC(=O)[C@H](Cc1c[nH]c2ccccc12)NC(=O)[C@H](C)NC(=O)[C@@H](NC(=O)[C@H](Cc1ccccc1)NC(=O)[C@H](CC(=O)O)NC(=O)[C@H](CCCNC(=N)N)NC(=O)[C@H](C)NC(=O)[C@H](CCCNC(=N)N)NC(=O)[C@H](CCCNC(=N)N)NC(=O)[C@H](C)NC(=O)[C@H](CC(=O)O)NC(=O)[C@H](CC(C)C)NC(=O)[C@H](Cc1ccc(O)cc1)NC(=O)[C@H](CCCCN)NC(=O)[C@H](CO)NC(=O)[C@H](Cc1ccc(O)cc1)NC(=O)[C@H](CC(=O)O)NC(=O)[C@H](CO)NC(=O)[C@@H](NC(=O)[C@H](Cc1ccccc1)NC(=O)[C@@H](NC(=O)CNC(=O)[C@H](CCC(N)=O)NC(=O)C(C)(C)NC(=O)[C@@H](N)Cc1c[nH]cn1)[C@@H](C)O)[C@@H](C)O)C(C)C)C(=O)N[C@@H](CCCCNC(=O)CC[C@H](NC(=O)CC[C@H](NC(=O)COCCOCCNC(=O)COCCOCCNC(=O)CC[C@H](NC(=O)CCCCCCCCCCCCCCCCC(=O)O)C(=O)O)C(=O)O)C(=O)O)C(=O)N[C@H](C(N)=O)[C@@H](C)O [Chem. 32, N^ε28-[(4S)-4-carboxy-4-[[(4S)-4-carboxy-4-[[2-[2-[2-[[2-[2-[2-[[(4S)-4-carboxy-4-(17-carboxyheptadecanoylamino)butanoyl]amino]ethoxy]ethoxy]acetyl]amino]ethoxy]ethoxy]acetyl]amino]butanoyl]amino]butanoyl]-[Aib2,Ala16,Arg20,Ala24,Ile27,Lys28]-Glucagon amide] (H-H[Aib]QGTFTSDYSKYLDARRARDFVAWLIK([γGlu-γGlu-AEEA-AEEA-γGlu-C18 diacid])T-NH2)",2,45.0

# The next lines start with the values.
EC50 (human GLP-1 receptor) [pM],"ThT Assay Lag time (h) [Assay (III), pH 7.5] [1] [h]",Structure (SMILES)
3,45.0,"CC[C@H](C)[C@H](NC(=O)[C@H](CC(C)C)NC(=O)[C@H](Cc1c[nH]c2ccccc12)NC(=O)[C@H](C)NC(=O)[C@@H](NC(=O)[C@H](Cc1ccccc1)NC(=O)[C@H](CC(=O)O)NC(=O)[C@H](CCC(N)=O)NC(=O)[C@H](C)NC(=O)[C@H](CCCNC(=N)N)NC(=O)[C@H](CCCNC(=N)N)NC(=O)[C@H](CO)NC(=O)[C@H](CCC(=O)O)NC(=O)[C@H](CC(C)C)NC(=O)[C@H](Cc1ccc(O)cc1)NC(=O)[C@H](CCCCN)NC(=O)[C@H](CO)NC(=O)[C@H](Cc1ccc(O)cc1)NC(=O)[C@H](CC(=O)O)NC(=O)[C@H](CO)NC(=O)[C@@H](NC(=O)[C@H](Cc1ccccc1)NC(=O)[C@@H](NC(=O)CNC(=O)[C@H](CCC(N)=O)NC(=O)C(C)(C)NC(=O)[C@@H](N)Cc1c[nH]cn1)[C@@H](C)O)[C@@H](C)O)C(C)C)C(=O)N[C@@H](CCCCNC(=O)CC[C@H](NC(=O)CC[C@H](NC(=O)COCCOCCNC(=O)COCCOCCNC(=O)CC[C@H](NC(=O)CCCCCCCCCCCCCCCCC(=O)O)C(=O)O)C(=O)O)C(=O)O)C(=O)N[C@H](C(N)=O)[C@@H](C)O [Chem. 34, N^ε28-[(4S)-4-carboxy-4-[[(4S)-4-carboxy-4-[[2-[2-[2-[[2-[2-[2-[[(4S)-4-carboxy-4-(17-carboxyheptadecanoylamino)butanoyl]amino]ethoxy]ethoxy]acetyl]amino]ethoxy]ethoxy]acetyl]amino]butanoyl]amino]butanoyl]-[Aib2,Glu15,Ala24,Ile27,Lys28]-Glucagon amide] (H-H[Aib]QGTFTSDYSKYLESRRAQDFVAWLIK([γGlu-γGlu-AEEA-AEEA-γGlu-C18 diacid])T-NH2)"
4,3.7,"CC[C@H](C)[C@H](NC(=O)[C@H](CC(C)C)NC(=O)[C@H](Cc1c[nH]c2ccccc12)NC(=O)[C@H](CCC(N)=O)NC(=O)[C@@H](NC(=O)[C@H](Cc1ccccc1)NC(=O)[C@H](CC(=O)O)NC(=O)[C@H](CCCNC(=N)N)NC(=O)[C@H](C)NC(=O)[C@H](CCCNC(=N)N)NC(=O)[C@H](CCCNC(=N)N)NC(=O)[C@H](CO)NC(=O)[C@H](CCC(=O)O)NC(=O)[C@H](CC(C)C)NC(=O)[C@H](Cc1ccc(O)cc1)NC(=O)[C@H](CCCNC(=N)N)NC(=O)[C@H](CO)NC(=O)[C@H](Cc1ccc(O)cc1)NC(=O)[C@H](CC(=O)O)NC(=O)[C@H](CO)NC(=O)[C@@H](NC(=O)[C@H](Cc1ccccc1)NC(=O)[C@@H](NC(=O)CNC(=O)[C@H](CCC(N)=O)NC(=O)C1(NC(=O)[C@@H](N)Cc2c[nH]cn2)CCC1)[C@@H](C)O)[C@@H](C)O)C(C)C)C(=O)N[C@@H](CCCCNC(=O)CC[C@H](NC(=O)COCCOCCNC(=O)CC[C@H](NC(=O)COCCOCCNC(=O)CC[C@H](NC(=O)COCCOCCNC(=O)CC[C@H](NC(=O)CC[C@H](NC(=O)CCCCCCCCCCCCCCCCC(=O)O)C(=O)O)C(=O)O)C(=O)O)C(=O)O)C(=O)O)C(=O)N[C@H](C(N)=O)[C@@H](C)O [Chem. 36, N^ε28-[(4S)-4-carboxy-4-[[2-[2-[2-[[(4S)-4-carboxy-4-[[2-[2-[2-[[(4S)-4-carboxy-4-[[2-[2-[2-[[(4S)-4-carboxy-4-[[(4S)-4-carboxy-4-(17-carboxyheptadecanoylamino)butanoyl]amino]butanoyl]amino]ethoxy]ethoxy]acetyl]amino]butanoyl]amino]ethoxy]ethoxy]acetyl]amino]butanoyl]amino]ethoxy]ethoxy]acetyl]amino]butanoyl]-[Acb2,Arg12,Glu15,Arg20,Ile27,Lys28]-Glucagon amide] (H-H[Ac4c]QGTFTSDYSRYLESRRARDFVQWLIK([γGlu-AEEA-γGlu-AEEA-γGlu-AEEA-γGlu-γGlu-C18 diacid])T-NH2; N-terminus assumed)"

# Source: patent US10570184B2, “GLP-1/glucagon receptor co-agonists for medical use” (Novo Nordisk A/S, priority 2014, dated 2020)
